From the supplement of paper PMC10331698
± gives the standard deviation of the averaged measurements.

Tests used:
Assay in all cases: level (log10 ratio to DMSO vehicle control); higher = higher biomarker level / cell amount than vehicle control
Settings in all cases: in DMSO
Hexafluoroglutaric acid = compound: O=C(O)C(F)(F)C(F)(F)C(F)(F)C(=O)O [Hexafluoroglutaric acid]
Procedure: (§1)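 BioMAP Diversity Plus panel of 12 human primary cell co-culture systems (3C, 4H, LPS, SAg, BT, BF4T, BE3C, CASM3C, HDF3CGF, KF3CT, MyoF, Mphg). Compounds were added 1 h before stimulation and left for 24 h (MyoF 48 h; BT 72 h for soluble read-outs or 6 d for IgG). Biomarkers were read by ELISA, cytotoxicity by SRB, PBMC viability and proliferation by Alamar Blue. Each well value was divided by the mean of 8 DMSO control wells on the same plate and log10 transformed; duplicate blinded samples were tested at 4 concentrations.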

Azathioprine = compound: Cn1cnc([N+](=O)[O-])c1Sc1ncnc2[nH]cnc12 [Azathioprine]
Procedure: as §1

1H,1H-Heptafluorobutanol = compound: OCC(F)(F)C(F)(F)C(F)(F)F [1H,1H-Heptafluorobutanol]
Procedure: as §1

[1] = compound: O=S(=O)(O)C(F)(F)C(F)(F)C(F)(F)C(F)(F)F [Perfluorobutanesulfonic acid]
Procedure: as §1

[2] = compound: O=C(O)C(F)(F)C(F)(F)C(F)(F)C(F)(F)C(F)(F)C(F)(F)C(F)(F)C(F)(F)C(F)(F)C(F)(F)C(F)(F)C(F)(F)C(F)(F)F [Perfluorotetradecanoic acid]
Procedure: as §1

Perfluorooctanamide = compound: NC(=O)C(F)(F)C(F)(F)C(F)(F)C(F)(F)C(F)(F)C(F)(F)C(F)(F)F [Perfluorooctanamide]
Procedure: as §1

Test System	level (log10) (Hexafluoroglutaric acid; 6700 nM)	level (log10) (Hexafluoroglutaric acid; 20000 nM)	level (log10) (Hexafluoroglutaric acid; 60000 nM)	level (log10) (Azathioprine; 1400 nM)	level (log10) (Azathioprine; 4200 nM)	level (log10) (Azathioprine; 13000 nM)	level (log10) (Azathioprine; 38000 nM)	level (log10) (1H,1H-Heptafluorobutanol; 6700 nM)	level (log10) (1H,1H-Heptafluorobutanol; 20000 nM)	level (log10) (1H,1H-Heptafluorobutanol; 60000 nM)	level (log10) ([1]; 6700 nM)	level (log10) ([1]; 20000 nM)	level (log10) ([1]; 60000 nM)	level (log10) ([2]; 6700 nM)	level (log10) ([2]; 20000 nM)	level (log10) (Perfluorooctanamide; 6700 nM)	level (log10) (Perfluorooctanamide; 20000 nM)	level (log10) (Perfluorooctanamide; 60000 nM)
BF4T:uPA	-0.009 ± 0.016	-0.0015 ± 0.015	-0.003 ± 0.0028	0 ± 0.0099	-0.008 ± 0.0042	-0.033 ± 0.0028	-0.026 ± 0.0099	-0.002 ± 0.0071	-0.019 ± 0.011	-0.009 ± 0.011	-0.026 ± 0.02	0.006 ± 0.0014	-0.014 ± 0.027	0.0075 ± 0.0078	0.017 ± 0.0028	-0.0175 ± 0.015	-0.004 ± 0.038	0.016 ± 0.027
LPS:CD69	-0.003 ± 0.011	-0.014 ± 0.0099	0.0075 ± 0.0021	-0.0175 ± 0.00071	-0.046 ± 0.0014	-0.0345 ± 0.033	-0.073 ± 0.04	-0.016 ± 0.021	-0.0245 ± 0.021	-0.0075 ± 0.0035	-0.0405 ± 0.061	0.0155 ± 0.05	0.0825 ± 0.023	-0.012 ± 0.025	-0.027 ± 0.068	-0.0115 ± 0.086	0.0295 ± 0.036	0.0385 ± 0.029
LPS:CCL2/MCP-1	-0.0135 ± 0.026	-0.012 ± 0.011	-0.004 ± 0.013	0.019 ± 0.055	0.011 ± 0.0042	0.03 ± 0.023	-0.01 ± 0.0014	-0.0125 ± 0.018	-0.0055 ± 0.0035	-0.001 ± 0.017	-0.0285 ± 0.057	-0.021 ± 0.027	-0.035 ± 0.0014	0.013 ± 0.055	0.0055 ± 0.077	-0.0295 ± 0.015	0.001 ± 0.0099	-0.0765 ± 0.012
3C:Proliferation	-0.0055 ± 0.0064	-0.009 ± 0.068	-0.0155 ± 0.054	-0.04 ± 0.057	-0.038 ± 0.081	-0.048 ± 0.018	-0.179 ± 0.031	0.0075 ± 0.005	0.02 ± 0.025	-0.0595 ± 0.005	-0.002 ± 0.0014	0.017 ± 0.031	-0.0525 ± 0.023	-0.306 ± 0.046	-0.329 ± 0.15	0.0165 ± 0.0021	0 ± 0.014	-0.081 ± 0.0085
BF4T:CD54/ICAM-1	0.0025 ± 0.005	-0.01 ± 0.0057	0.006 ± 0.011	0.007 ± 0.02	-0.0025 ± 0.013	-0.012 ± 0.0071	-0.0155 ± 0.022	0.0035 ± 0.0021	0.008 ± 0.0085	0.001 ± 0.013	-0.027 ± 0.0085	-0.002 ± 0.0014	-0.0115 ± 0.019	-0.002 ± 0.0099	0.0175 ± 0.025	-0.0175 ± 0.0064	-0.006 ± 0.014	-0.015 ± 0.0028
LPS:IL-1alpha	-0.023 ± 0.02	-0.0325 ± 0.0064	0.002 ± 0.037	0.0405 ± 0.067	0.04 ± 0.064	0.0165 ± 0.0064	-0.0185 ± 0.00071	-0.028 ± 0.025	-0.068 ± 0.0085	0.0095 ± 0.015	-0.0445 ± 0.067	-0.0235 ± 0.013	-0.0265 ± 0.05	-0.031 ± 0.071	-0.045 ± 0.09	-0.032 ± 0.033	-0.003 ± 0.047	-0.0395 ± 0.0092
BF4T:CCL26/Eotaxin-3	0.016 ± 0.054	0.0055 ± 0.042	0.043 ± 0.011	0.0215 ± 0.059	0.025 ± 0.058	0.007 ± 0.014	-0.0025 ± 0.032	0.0275 ± 0.04	0.0405 ± 0.022	0.0315 ± 0.013	-0.057 ± 0.09	-0.014 ± 0.035	-0.003 ± 0.047	-0.074 ± 0.0057	-0.057 ± 0.059	0.016 ± 0.017	-0.0015 ± 0.057	-0.0475 ± 0.0064
4H:CD62P/P-selectin	0.0065 ± 0.0035	-0.035 ± 0.0014	-0.05 ± 0.064	-0.019 ± 0.062	-0.007 ± 0.031	-0.0075 ± 0.036	-0.108 ± 0.011	0.0195 ± 0.064	-0.007 ± 0.14	0.044 ± 0.15	-0.0155 ± 0.035	0.0045 ± 0.016	-0.0085 ± 0.015	0.0015 ± 0.011	0.0055 ± 0.021	-0.0005 ± 0.0078	-0.0225 ± 0.022	-0.02 ± 0.024
